Measured values taken from patent EP4534147A1, “STING ANTAGONIST COMPOUNDS” (Sulis Therapeutics ApS, priority 2023, dated 2025).

Molecular target: C-terminal domain (CTD) of human STING (Homo sapiens, UniProt Q86WV6)
Experiment: STING binding FP assay II (as FP assay I, lower STING concentration)
Design: recombinant human STING protein (155-379)
Details: 7 nM STING in buffer A, 4 nM fluorescein-labelled STING ligand (Probe 1)
Method: The interaction between molecules and the C-terminal domain (CTD) of human STING was evaluated using a competition binding assay. In this assay, recombinant human STING protein (155-379) and a STING binding fluorescent probe were employed. Upon binding of the probe to STING, the rotation of the fluorescent probe is slowed due to the larger molecular size of the protein-bound complex. As a result, emitted light retains its plane of polarization, leading to an increase in fluorescence polarization. Molecules competing for the probe binding site displace the probe, which leads to rapid randomization of the polarization plane of the emitted light and a subsequent decrease in measured fluorescence polarization signal. Change in polarization was measured, allowing a comparative evaluation of the binding affinities of different compounds to the target protein.
The assay was performed in 96-well plates (ThermoFisher, cat.# 237108) containing 100 µl : 10 µL test compound in 10% DMSO and buffer A (150 mM NaCl, 50 mM HEPES pH 7.5, 1 mM DTT) + 90 µL prepared master mix solution of: 4 nM fluorescein-labelled STING ligand (Probe 1; synthesis described above) in buffer A + 0.055% Tween-20 (v/v) and 35 nM STING in buffer A. Post mixing, plates were agitated at 600 rpm and incubated for 20 min at room temperature. Subsequent measurements of the fluorescence polarization signal were made on a BioTek Synergy-H1 plate reader, using a polarization filter; excitation: 485/20 nm, emission: 528/20 nm) with a gain-setting of 75. IC50 values were determined using a standard non-linear regression four-parameter curve fit in Graphpad Prism.
The procedure for STING binding FP assay II is the same as described for STING binding FP assay I, except for a lower STING concentration. In STING binding FP assay II, a concentration of 7 nM STING in buffer A was used.

Chain of C-terminal domain (CTD) of human STING (Q86WV6 155-379): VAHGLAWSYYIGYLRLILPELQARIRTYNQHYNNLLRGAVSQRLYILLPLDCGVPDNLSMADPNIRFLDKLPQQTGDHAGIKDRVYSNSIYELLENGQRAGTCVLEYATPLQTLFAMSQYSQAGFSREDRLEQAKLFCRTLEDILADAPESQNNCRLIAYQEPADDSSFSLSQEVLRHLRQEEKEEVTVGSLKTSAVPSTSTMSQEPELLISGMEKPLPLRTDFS

| Structure (SMILES) | IC50 [nM] |
| --- | --- |
| CCn1nc(C)cc1C(=O)N=c1n(C)c2cc(C(N)=O)ccc2n1CCC(CCn1c(=NC(=O)c2cc(C)nn2CC)n(C)c2cc(C(N)=O)ccc21)OCC(=O)N(C(C)C)C(C)C (centres unmarked) [Example 21, 1-(3-{[Bis(isopropyl)carbamoyl]methoxy}-5-{5-carbamoyl-2-[(1-ethyl-3-methyl-5-pyrazolyl)carbonylimino]-3-methyl-2,3-dihydro-1H-1,3-benzimidazol-1-yl}pentyl)-2-[(1-ethyl-3-methyl-5-pyrazolyl)carbonylimino]-3-methyl-2,3-dihydro-1H-1,3-benzimidazole-5-carboxamide] | 4.8 |
| CCn1nc(C)cc1C(=O)N=c1n(C)c2cc(C(N)=O)ccc2n1CCC(CCn1c(=NC(=O)c2cc(C)nn2CC)n(C)c2cc(C(N)=O)ccc21)OCC(=O)n1nc(N)cc1C (centres unmarked) [Example 23, 1-{3-[2-(3-Amino-5-methyl-1-pyrazolyl)-2-oxoethoxy]-5-{5-carbamoyl-2-[(1-ethyl-3-methyl-5-pyrazolyl)carbonylimino]-3-methyl-2,3-dihydro-1H-1,3-benzimidazol-1-yl}pentyl}-2-[(1-ethyl-3-methyl-5-pyrazolyl)carbonylimino]-3-methyl-2,3-dihydro-1H-1,3-benzimidazole-5-carboxamide] | 6.3 |
| CCn1nc(C)cc1C(=O)N=c1n(C)c2cc(C(N)=O)ccc2n1CCC(CCn1c(=NC(=O)c2cc(C)nn2CC)n(C)c2cc(C(N)=O)ccc21)OCC(=O)n1nc(C)cc1N (centres unmarked) [Example 24, 1-{3-[2-(5-Amino-3-methyl-1-pyrazolyl)-2-oxoethoxy]-5-{5-carbamoyl-2-[(1-ethyl-3-methyl-5-pyrazolyl)carbonylimino]-3-methyl-2,3-dihydro-1H-1,3-benzimidazol-1-yl}pentyl}-2-[(1-ethyl-3-methyl-5-pyrazolyl)carbonylimino]-3-methyl-2,3-dihydro-1H-1,3-benzimidazole-5-carboxamide] | 4.8 |
| CCn1nc(C)cc1C(=O)N=c1n(C)c2cc(C(N)=O)ccc2n1CCC(CCn1c(=NC(=O)c2cc(C)nn2CC)n(C)c2cc(C(N)=O)ccc21)OCC(=O)N1CCC[C@H]1c1ccccc1 (stereo partly drawn) [Example 25, 1-(3-{2-[(S)-2-Phenyl-1-pyrrolidinyl]-2-oxoethoxy}-5-{5-carbamoyl-2-[(1-ethyl-3-methyl-5-pyrazolyl)carbonylimino]-3-methyl-2,3-dihydro-1H-1,3-benzimidazol-1-yl}pentyl)-2-[(1-ethyl-3-methyl-5-pyrazolyl)carbonylimino]-3-methyl-2,3-dihydro-1H-1,3-benzimidazole-5-carboxamide] | 4.6 |
| CCn1nc(C)cc1C(=O)N=c1n(C)c2cc(C(N)=O)ccc2n1CCC(CCn1c(=NC(=O)c2cc(C)nn2CC)n(C)c2cc(C(N)=O)ccc21)OCC(=O)N1CCC[C@@H]1c1cc(F)ccc1F (stereo partly drawn) [Example 27, 1-(3-{2-[(R)-2-(2,5-Difluorophenyl)-1-pyrrolidinyl]-2-oxoethoxy}-5-{5-carbamoyl-2-[(1-ethyl-3-methyl-5-pyrazolyl)carbonylimino]-3-methyl-2,3-dihydro-1H-1,3-benzimidazol-1-yl}pentyl)-2-[(1-ethyl-3-methyl-5-pyrazolyl)carbonylimino]-3-methyl-2,3-dihydro-1H-1,3-benzimidazole-5-carboxamide] | 3.7 |
